# According to a melting point compilation (Tetko et al.):
row,melting point [°C],Compound
1,278,O=[N+]([O-])c1ccc(-c2ccc(-c3ccc([N+](=O)[O-])cc3)cc2)cc1
2,35.5,CCCCCCCCNCCCCCCCC
3,180 to 182,CC(=O)OC1C(=O)C2=C(C(=O)C13CC3C)C(O)C(O)C1C(C)(C)CCCC21C (stereo not given)
4,139 to 145,CC(OC(=O)c1ccc([N+](=O)[O-])cc1)c1cccc(C(C)OC(=O)c2ccc([N+](=O)[O-])cc2)c1 (stereo not given)
5,255 to 256,Cc1nc2ccccc2c2c1C(=O)NC2=O
6,39,CC(=O)c1cc(F)cc(F)c1
7,244 to 247,NC(C(=O)O)(c1ccccc1)c1ccccc1
8,128,COC(=O)c1c(N)sc2c1CCCC2
9,88,Cc1ccccc1CC(=O)O
10,-25,Cc1ccc(C)c([N+](=O)[O-])c1
11,83,O=C(O)C=CCCl
12,161 to 163,OC[C@H]1O[C@@H](n2cnc3c(Cl)ncnc32)[C@H](O)[C@@H]1O
13,124,CCCN(CCC)c1c([N+](=O)[O-])cc(C(F)(F)F)c(N)c1[N+](=O)[O-]
14,152 to 154,COc1ccc(Cc2c(N)n[nH]c2N)cc1
15,116 to 120,"O=C1CC2C(CC(OC(=O)c3ccccc3)C2CO)O1 (single isomer, unassigned; (-))"
16,125,CC12CCC(c3cn(-c4ccccc4)nc31)C2(C)C (stereo not given)
17,110,S=C(SC(=S)N1CCCCC1)N1CCCCC1
18,78 to 80,Cn1ccc(-c2ccc(CCl)cc2)n1
19,283,c1ccc(P(c2ccccc2)c2ccc3ccccc3c2-c2c(P(c3ccccc3)c3ccccc3)ccc3ccccc23)cc1
20,77 to 78,O=[N+]([O-])c1ccc(Cl)c(CO)c1
21,177 to 179,Cc1ccc(S(=O)(=O)NN=Cc2coc(C=Cc3ccccc3)n2)cc1
22,300,N#CC1=C(N)Oc2c(Br)cc(Br)cc2C1C(C#N)C#N (stereo not given)
23,55,COc1c(F)cc(Br)cc1[N+](=O)[O-]

row,melting point [°C],Compound
1,125,O=C(c1cccs1)c1noc(-c2ccc(Cl)cc2)c1S(=O)(=O)c1ccccc1
2,91 to 92,CC(O)(c1cc2ccccc2o1)c1cc2ccccc2o1
3,169 to 171,c1ccc(C(c2ccccc2)=P(c2ccccc2)(c2ccccc2)c2ccccc2)cc1
4,99.5,CCCCCCCCC(N)=O
5,107,O=C1OC(=O)c2cc(Br)ccc21
6,4,CCCCCCN1CC(C(=O)OC)CC1=O (stereo not given)
7,57,CCCCCCCCCCCCCCCCCC(=O)OCCCCCCCCCCCCCCCC
8,187 to 191,CC1(C)C(=O)N(Br)C(=O)N1Br
9,89 to 91,O=Cc1ccc(-c2ccc(F)c(C(F)(F)F)c2)o1
10,184,O=C(O)c1cncc(Br)c1
11,178 to 182,O=C1CC2C(Br)CC1C2C(=O)O (stereo not given)
12,121,CC12CCC(C(OC(=O)c3ccc([N+](=O)[O-])cc3)=CC1=O)C2(C)C (stereo not given)
13,57.5,CCCCCCC=NO
14,195,NC(=O)c1ncccc1O
15,238 to 239,Cn1c(SCC(=O)O)nnc1-c1ccc2ncccc2c1
16,162,Oc1ccccc1CNCc1ccccc1O
17,15,CNc1ccccn1
18,186,CC(=O)N(Nc1ccccc1)c1ccc(N=Nc2ccccc2)cc1
19,132 to 135,CC(=O)OC1COC(C#N)C(OC(C)=O)C1OC(C)=O (stereo not given)
20,92,COC(=O)c1cc(C)on1
21,68,N#CCc1ccc(OCc2ccccc2)cc1
22,155 to 156,FC(F)(F)c1ccc(-c2nnc(S)o2)cc1
23,141,CCOC(=O)C=Cc1ccc(N=[N+]([O-])c2ccc(C=CC(=O)OCC)cc2)cc1

row,melting point [°C],Compound
1,309 to 311,O=C(O)c1ccc(-n2ccnc2)cc1
2,119,CCCC(=O)Nc1ccc(OCC(O)CNC(C)C)c(C(C)=O)c1 (stereo not given)
3,244 to 246,Cc1nc(N)nc(O)c1Br
4,75 to 77,Nc1ccc(Br)c(Cl)c1Cl
5,131,Cc1cc(C(C)(C)C)cc(C)c1CC1=NCCN1
6,-20,Fc1ccc(I)cc1
7,106,Cc1c(Br)sc2ccc(Cl)cc12
8,283,Nc1nn2c(C(F)(F)F)cc(=O)[nH]c2c1/N=N/c1ccccc1
9,68,Nc1ccc(Br)c(F)c1
10,< 25,CN(C)CCC(c1ccc(Br)cc1)c1ccccn1 (stereo not given)
11,143,CCCCOC(=O)C1=C(C)NC(=O)NC1c1ccc2c(c1)OCO2 (stereo not given)
12,129 to 131,COC(=O)C(C#N)=C(NC(=O)c1ccccc1)SC
13,234,O=C(O)CCc1ccc2c(c1)CCC(=O)N2
14,-94,FC(F)(Cl)C(F)(F)Cl
15,75,CCCCCCSc1nnc(S)s1
16,168 to 170,O=C(O)c1cc(S(=O)(=O)Cl)ccc1O
17,115 to 116,Cc1nc(Cl)c2c(C)c(C)sc2n1
18,192 to 197,O=C1c2ccccc2C(=O)c2cc(CO)ccc21
19,136,CC(C)(C)C(C)(C)Cl
20,265 to 268,Oc1ccnc2ccc(C(F)(F)F)cc12
21,88,COC(=O)C1Cc2ccccc2C(=O)C1C(=O)OC (stereo not given)
22,9.7,O=C(O)CC(F)(F)F
23,141,Cc1ccc(C(C(=O)NC(C)(C)C)N(C)C(=O)CCCc2ccc3ccc4cccc5ccc2c3c45)cc1 (stereo not given)

row,melting point [°C],Compound
1,205 to 207,CC(=O)Nc1ccc(-c2ccc(F)cc2)cc1
2,139 to 140,Clc1ncnc2sc(-c3ccccc3)cc12
3,131 to 132,Cc1nc(-c2ccc(CO)cc2)no1
4,69 to 72.5,BrCc1cccc(N2CCCC2)n1
5,222,CC(=O)C1(O)CCC2C3CC(C)C4=CC(=O)CCC4(C)C3CCC21C (stereo not given)
6,10 to 11,CC(C)N(C=O)C(C)C
7,63 to 64,O=Cc1cccc(CN2CCOCC2)c1
8,290,O=C(O)c1[nH]c2ccc([N+](=O)[O-])cc2c1-c1ccccc1
9,70,CC(CC(=O)c1ccccc1)c1ccccc1 (stereo not given)
10,152,COc1ccc(-c2nnc3n2NC(c2ccc(OC)cc2)S3)cc1 (stereo not given)
11,32,CCCCCCCCCCC(Br)C(=O)O (stereo not given)
12,156,O=C(c1ccccc1)C(Br)C(Br)c1ccccc1 (stereo not given)
13,54 to 55,Nc1ccc(-n2cccn2)cc1
14,144,C[C@]1(O)C#CCCCCC#C[C@](C)(O)CC1
15,185,Cc1ccc(C2C(C#N)=C(N)Oc3[nH]nc(C(F)(F)F)c32)cc1 (stereo not given)
16,116,O=C1COC(c2ccc(C(F)(F)F)cc2)CN1 (stereo not given)
17,104 to 105,CCc1nc(C)c(C=O)[nH]1
18,228,CCNC(=O)Nc1ncc([N+](=O)[O-])s1
19,78,C=C(C)C1CCC(C)CC1O (stereo not given)
20,62 to 64,O=C(Oc1c(F)c(F)c(F)c(F)c1F)c1ccccc1OC1CCOCC1
21,150,N=C(N)N(c1ccccc1)c1ccccc1
22,196,CSc1nn2c(=O)c(C)nnc2s1
23,278,c1cc2ccc3ccc4ccc5cccc6c(c1)c2c3c4c56

row,melting point [°C],Compound
1,163,CCc1ccc(C(N)=O)cc1
2,85,Cn1ccc2c1CCCC2=O
3,94 to 95,O=Cc1ccc(-n2cccc2)cc1
4,118 to 119,O=S(=O)(Cl)c1ccc2ncsc2c1
5,214 to 215,O=C1OC(c2ccccc2)=NC1=Cc1ccc([N+](=O)[O-])cc1
6,265,Cn1c(=O)c(C2=NNC(=O)C2=Cc2ccc3c(c2)OCO3)c(O)c2ccccc21
7,23 to 24,CCC12CC3CC(CC(Br)(C3)C1)C2
8,235,c1cc2cc3ccc4c(c3nc2c2c1NCOC2)COCN4
9,200 to 201,CCCCc1c(C)nc(NC(=O)NS(=O)(=O)c2cccs2)nc1O
10,200 to 201,CC1(c2ccccc2)CC(C(=NO)c2cc3ccccc3o2)C1 (stereo not given)
11,97,O=C1[C@H]2CC[C@@H]1[C@H]1C=C[C@@H]2O1
12,119,O=C(O)C1=CCCC1
13,72,Cc1ccccc1NCCNc1ccccc1C
14,148 to 150,COc1ccc2[nH]cc(CC(=O)O)c2c1
15,121,CN(C)c1ccc(CCC2CCc3ccccc3N2C(=O)c2ccccc2)cc1 (stereo not given)
16,120 to 122,Cc1ccc(F)cc1C(N)=O
17,276 to 278,N#Cc1nc[nH]c1C(N)=O
18,197 to 201,COC(=O)c1nc[nH]c1C(=O)OC
19,184 to 186,OC(c1ccccc1)(c1ccccc1)C(O)(c1ccccc1)c1ccccc1

row,Compound,melting point [°C]
1,CCC1(O)CCC2C3CCC4=CC(=O)CCC4C3CCC21C (stereo not given),140
2,FC(F)(F)CCl,-106
3,Cc1cc(C(C#N)c2ccc(Cl)cc2)c(Cl)cc1NC(=O)c1cc(I)cc(I)c1O (stereo not given),218
4,Nc1c([N+](=O)[O-])cccc1[N+](=O)[O-],142
5,O=C1c2ccccc2C(=O)C1C(=O)C(c1ccccc1)c1ccc(Cl)cc1 (stereo not given),140
6,CC(Br)C(C)Br (stereo not given),-24
7,CS(=O)(=O)c1ccc(C(=O)C2C(=O)CCCC2=O)c(Cl)c1,139
8,Brc1cc(Br)c(Oc2ccc(Br)c(Br)c2)c(Br)c1,86 to 87
9,c1ccc(N2CCN(c3ccccc3)CC2)cc1,165
10,CN1CCC23C(=O)CC4C(=CCOC5CC(=O)N(c6c(O)cccc62)C3C54)C1 (stereo not given),282
11,O=C(NC(=O)c1ccccc1Cl)Nc1ccc(OC(F)(F)F)cc1,195
12,CN(C)C(=O)OC1N=C(c2ccccc2)c2cc(Cl)ccc2N(C)C1=O (stereo not given),174
13,O=C(O)c1ccccc1C(=O)Nc1cccc2ccccc12,185
14,CCC1(c2ccc(N)cc2)CCC(=O)NC1=O (stereo not given),150
